The text below walks through data of PubChem BioAssay AID179 (DTP/NCI, 2004).

Activity calls are given as the source filed them.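 How the source made its calls: active means compounds giving half or more protection of infected cells from virus-caused growth loss, again on retest; inactive means the rest.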 Where a SMILES comes first, the peptide text is derived from it. A value given as a limit tells only on which side of the number the result lay.

This experiment has as its system CEM cells HIV-1 protection, formazan growth assay. Description: NCI AIDS Antiviral Assay. Particulars: for IC50: measured here: growth of uninfected CEM cells. In a few lines:
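Human CEM cells, uninfected and HIV-1-infected, exposed to five drug concentrations; growth measured by soluble formazan assay and scored as percent protection from infection, with protecting compounds retested.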

The EC50 is the concentration giving half of the maximal effect. One may read the IC50 as the concentration needed to halve the response being measured. A lower IC50 goes with greater potency.

As for `O=C1CCCC1CN1CCCCC1` (stereo unspecified), the result was inactive.
Same read-out and setting: the same measure for `NC1=C(O)c2ccccc2C(=O)C1=O`: “inactive”.
`O=C(NC1C=Nc2ccc(Cl)cc2NC1=O)c1ccccc1Cl` (stereo unspecified): the EC50 was > 200 µM and the IC50 is 123 µM.
In the case of `CCOC(=O)c1sc2c(c1OC(=O)c1cc(OC)c(OC)c(OC)c1)c(=O)n(-c1ccccc1)c(=S)n2-c1ccccc1`, the EC50 is > 200 µM and the IC50 amounted to 4.47 µM.
The matching figures for `O=C(NNC(=S)Nc1ccccc1)c1ccccc1Nc1ccccc1C(=O)NNC(=S)Nc1ccccc1`: > 30.9 µM and 30.2 µM.
The like results for `CN(C)C=Nc1ccc2c3c(cccc13)-c1ccccc1-2` were, in that order, > 200 µM and 14.1 µM.
The matching figures for `N=c1ccc2nc(N)nn(O)c-2c1`: > 200 µM and > 200 µM.
Regarding `CN1N=C(c2ccncc2)OC1c1cccc(F)c1` (stereo unspecified), the EC50 was > 200 µM and the IC50 amounted to 79.4 µM.
As for `N#CSCC(Cl)=CCl` (mixture of isomers), the EC50 was > 200 µM and the IC50 came to 49 µM.
The like results for `CCCCCCCCCCCCCCCCOC1N(C2CC(N=[N+]=[N-])C(CO)O2)C(=O)NC(=O)[C@]1(C)Br` (stereo partly specified) were, in that order, > 200 µM and 11 µM.
The like results for `O=C(CCCN1CCC2(CC1)CC(c1ccccc1)OC2=O)c1ccc(F)cc1` (stereo unspecified) were, in that order, > 200 µM and 89.1 µM.
The like results for `COc1cc2c(c(O)c1OC)CC1CCC(=O)N1C2c1cccc2ccccc12` (stereo unspecified) were, in that order, > 200 µM and 17.4 µM.
As for `Oc1c2cccc1Cc1cccc3c1OCCOCCOCCOCCOc1c(cccc1Cc1cccc(c1O)C3)C2`, the EC50 was > 200 µM and the IC50 is 50.1 µM.
Consider `CC(=O)Nc1c(C#N)c2n(c1C(=O)Nc1ccccc1)CCCC2`, for which the EC50 is > 200 µM and the IC50 is > 200 µM.
In the case of `Nc1nc2c(ncn2C2CCC(CO)O2)c(=O)n1C(=O)c1ccccc1` (stereo unspecified), the EC50 was 37.2 µM and the IC50 was > 100 µM.
The matching figures for `CC1(C)C(=O)N(O)C(C)(C)N1N=O`: > 200 µM and > 200 µM.
As to `CC[C@H](C)N(CCN)C(=O)c1cc2ccccc2c(-c2ccccc2Cl)n1`, the result was inactive.
For the compound `O=C(Nc1ccccc1SC(/C=C/NNC1=NC(c2ccccc2)C(c2ccccc2)=NN1)c1ccccc1)c1ccc(Cl)cc1Cl` (stereo unspecified), the EC50 was > 10.7 µM and the IC50 is > 10.7 µM.
`O=C(C=Nc1ccccc1C(=O)O)c1ccco1`: the EC50 is > 8.32 µM and the IC50 is > 8.32 µM.
With `COc1ccc(C2CC3(c4ccccc4)ON=C(c4ccccc4)N3c3ccccc3S2)cc1` (stereo unspecified), the EC50 was > 200 µM and the IC50 is > 200 µM.
In the case of `c1ccc2c(-c3csc(-c4c[nH]c5ccccc45)n3)c[nH]c2c1`, the EC50 was > 200 µM and the IC50 came to 56.2 µM.
For `O=C1CCCC2COc3ccc(O)c1c32` (stereo unspecified), the result was inactive.
Consider `COC(=O)C1(C(=O)OC)C2=Nc3ccccc3[C@@]23CCN(Cc2ccccc2)C3C[C@H]1c1ccoc1` (stereo partly specified), for which the EC50 is > 36.3 µM and the IC50 was determined as 21.4 µM.
The matching figures for `O=C(Nc1ccc(CC2=NCCCN2)cc1)c1ccc(C(=O)Nc2ccc(CC3=NCCCN3)cc2)cc1`: > 200 µM and 112 µM.
The like results for `CCOC(=O)C1=C(SC)SC(C(=O)OCC)C2C=C(C)C=CN12` (stereo unspecified) were, in that order, > 102 µM and 45.7 µM.
The matching figures for `Cc1cc(C)nc(NC(=S)Nc2ccc(Cl)cc2)c1`: > 100 µM and > 100 µM.
Consider `COc1ccc2nc3cc(Cl)ccc3c(SCC(=O)Nc3ccccc3-c3ccccc3NC(=O)CSc3c4ccc(Cl)cc4nc4ccc(OC)cc34)c2c1`, for which the EC50 was > 8.91 µM and the IC50 is > 8.91 µM.
As for `Clc1cccc(N2CCN(CCCN3CCc4c([nH]c5ccccc45)C3c3cccnc3)CC2)c1` (stereo unspecified), the EC50 is > 5.37 µM and the IC50 is > 5.37 µM.
For the compound `CN(C)CCCCC1c2ccccc2Sc2ccccc21`, the EC50 was > 200 µM and the IC50 turned out to be 8.71 µM.
The matching figures for `CC(NC(=O)CNC(=O)C(N)CO)C(=O)NC(CCC(=O)O)C(=O)NC(CCC(=O)O)C(=O)NC(CO)C(=O)NC(CCCCN)C(=O)NC(CCC(=O)O)C(=O)NC(CCC(N)=O)C(=O)NC(CO)C(=O)N1CCCC1C(=O)NC(CC(N)=O)C(=O)NC(C)C(=O)NC(Cc1cnc[nH]1)C(=O)NC(CO)C(=O)O` (stereo unspecified) (H-SGAEESKEQSPNAHS-OH; configuration not given here): > 100 µM and > 100 µM.
For the compound `COC(=O)[C@@]1(C)C(=O)CC[C@@H]1C=O`, the EC50 was > 251 µM and the IC50 stood at 50.1 µM.
The matching figures for `N#CC1=C(C#N)SCCCS1`: > 14.8 µM and > 14.8 µM.
Turning to `C=C1CN(S(=O)(=O)c2ccc(C)cc2)CCCN(C(=O)OC(C)C)CCCN(S(=O)(=O)c2ccc(C)cc2)C1`, the EC50 was > 200 µM and the IC50 is 14.1 µM.
The matching figures for `COC(=O)C1CCC(=S)N1C(=O)OCc1ccccc1` (stereo unspecified): > 200 µM and > 200 µM.
The like results for `O=c1c2cc([N+](=O)[O-])ccc2oc2ccc([N+](=O)[O-])cc12` were, in that order, > 13.2 µM and > 13.2 µM.
Consider `O[C@H]1C=CC[C@H]2C(F)(F)[C@](F)(Cl)[C@@]12Cl`, for which the EC50 is > 1000 µM and the IC50 is 186 µM.
The matching figures for `COc1ccc([C@@H]2C[C@@H]3C(=O)OC(=O)[C@@H]3c3c2c2ccccc2n3C)cc1`: > 52.5 µM and > 52.5 µM.
The like results for `COc1ccc(-c2cc(-c3ccccc3)nc3c2CC(=O)Nc2ccccc2-3)cc1OC` were, in that order, > 100 µM and 15.5 µM.
The like results for `C/C(=N/OC(=O)N(C)C)c1cccs1` were, in that order, > 200 µM and > 200 µM.
Turning to `COc1ccc(C2SCC(=O)N2c2ccc(-c3ccc(-n4c(-c5ccccc5)nc5ccccc5c4=O)cc3)cc2)cc1` (stereo unspecified), the EC50 was > 200 µM and the IC50 was 33.9 µM.
For the compound `COC(=O)/C=C\c1ccc2c(c1)CC1(C2)Cc2ccc(/C=C/C(=O)OC)cc2C1` (stereo unspecified), the EC50 was > 200 µM and the IC50 was > 200 µM.
`CN1CC(=O)Nc2c(ncn2C2OC(CO)C(O)C2O)C1=O` (stereo unspecified): the EC50 is > 229 µM and the IC50 is > 229 µM.
As for `C=C(Cn1cnc2c(N)ncnc21)C(=O)OCC`, the outcome was inactive.
`CCOCC=NCC(=O)OCC`: the EC50 was > 1450 µM and the 50% inhibitory concentration (IC50) was > 1450 µM.
For `Cn1c(=O)n2n(c1=O)C(C)(C13CC4CC(CC(C4)C1)C3)C13CC4CC(CC1C4)CC23` (stereo unspecified), the EC50 is > 100 µM and the IC50 was > 100 µM.
As for `c1csc(-c2csc(-c3cccs3)c2)c1`, the EC50 was > 200 µM and the IC50 was determined as 40.7 µM.
The like results for `Nc1nc2c(c(=O)[nH]1)N(C=O)C(CNc1ccc(C(=O)N[C@@H](CCC(=O)O)C(=O)O)cc1)CN2` (stereo partly specified) were, in that order, > 200 µM and > 200 µM.
The matching figures for `Nc1ccccc1[S][Sn]([c]1ccccc1)([c]1ccccc1)[c]1ccccc1`: > 2 µM and 0.324 µM.
The like results for `Cc1c2ccncc2c(C)c2c1[nH]c1ccc(F)cc12` were, in that order, > 200 µM and 0.437 µM.
For the compound `CC(/C=C/c1ccccc1Cl)=N\C(=S)NC(N)=S`, the EC50 was > 200 µM and the IC50 was determined as 20.9 µM.
The like results for `CSCCC(NC(=O)Cc1ccc(C(=O)c2ccccc2)cc1)C(=O)N1CCN(CCCCN2c3ccccc3Sc3cc(N=[N+]=[N-])ccc32)CC1` (stereo unspecified) were, in that order, > 200 µM and 33.1 µM.
As to `O=C(c1ccc(Cl)cc1)c1cc2c([nH]c1=O)CCCCC2`, the result was inactive.
As for `O=[N+]([O-])c1ccccc1OCCOc1ccccc1[N+](=O)[O-]`, the EC50 is > 200 µM and the IC50 is > 200 µM.
Turning to `Cc1nc(Nc2ccc(Cl)c(Cl)c2)sc1C(/C=C/c1ccc2c(c1)OCO2)=N/Nc1ccc([N+](=O)[O-])cc1[N+](=O)[O-]`, the EC50 is > 2.34 µM and the IC50 is > 2.34 µM.
As to `O=C(O)/C=C\C(=O)Nc1ccccc1O`, the EC50 was > 200 µM and the IC50 is > 200 µM.
On to `O=C(ON=C1c2ccccc2C(Br)C(Br)c2ccccc21)c1cc([N+](=O)[O-])cc([N+](=O)[O-])c1` (stereo unspecified), for which the EC50 is > 200 µM and the IC50 amounted to 0.851 µM.
The like results for `O=C1OC(c2ccccc2)=N/C1=C\c1ccc(Br)cc1` were, in that order, > 4.37 µM and > 4.37 µM.
For `CCOC(=O)C1=C(Nc2ccc(Cl)c(Cl)c2)OC/C1=N\NS(=O)(=O)c1ccc(C)cc1`, the EC50 is > 74.1 µM and the IC50 came to 64.6 µM.
Regarding `COc1ccc2c(c1)nc1n2C(N)=Nc2ccccc2S1`, the EC50 is > 200 µM and the IC50 came out at 11.5 µM.
Regarding `COc1ccc(C(c2c(O)c3ccccc3oc2=O)c2c(O)c3ccccc3oc2=O)c(OC)c1`, the EC50 was > 200 µM and the IC50 came out at 85.1 µM.
The matching figures for `CC1(O)c2ccccc2[P+](C)(c2ccccc2)c2ccccc21` (stereo unspecified): > 562 µM and 29.5 µM.
With `C=C1c2[nH]c3ccccc3c2CC(C(=O)O)N1C(O)c1ccc(S(=O)(=O)O)cc1` (stereo unspecified), the result was inactive.
Turning to `O=C1CC(c2cccc(Cl)c2)n2cccc21` (stereo unspecified), the EC50 was > 200 µM and the IC50 is 93.3 µM.
With `COc1cc(CO)c(-c2c(CO)cc(OC)c(OC)c2OC)c(OC)c1OC`, the EC50 was > 631 µM and the IC50 is > 631 µM.
In the case of `Brc1cn2[n+](c1)[B-]n1cc(Br)c[n+]1[B-]2`, the EC50 was > 200 µM and the IC50 came to 138 µM.
The matching figures for `CC(C)N=c1sc(-c2ccccc2)c(C#N)c(=O)n1C(C)C`: > 75.9 µM and 55 µM.
Consider `Cc1ccccc1-n1c(=S)n(-c2ccccn2)c2nc3ccccc3nc1/c2=N/Nc1ccccn1`, for which the EC50 was > 162 µM.
`Cc1ccc(C2(O)CC(c3ccc([N+](=O)[O-])o3)=NN2C(=O)COc2ccc(Cl)cc2)cc1` (stereo unspecified): the EC50 is > 11.5 µM and the IC50 was > 11.5 µM.
Take `CC1=NOC2(C1)C(=O)Nc1ccccc12` (stereo unspecified): the EC50 was > 200 µM and the IC50 turned out to be 141 µM.
`C1CCC2(CC1)CCN(CCCN1CCOCC1)CC2`: the outcome was inactive.
